Laboratory results as given in US10202349B2, “Asymmetric bis-acridines with antitumour activity and their uses” (POLITECHNIKA GDAŃSKA, priority 2015, dated 2019).

Columns and labels:
BxPC-3 = assay: Cytotoxic activity in vitro, SRB; assay type: cell-based, human
Experimental: (§1) Cytotoxic activity tests in-vitro. A measure of the cytotoxic activity of bis-acridines are the EC50 (concentration of studied compounds at which 50% inhibition of proliferation of tumorous is observed) of the evaluated compounds that inhibit the growth of 50% of cells in relation to a control. The cytotoxic activity of the compounds was determined using SRB, recommended by the US National Cancer Institute (USA). As the spectrum of 13 human origin neoplasms in bis-acridine screening studies, we used the following: HT 29 [CRC], HCT 116 [CRC], H 460 [lung cancer], MDA MB 231 [breast cancer], MCF-7 [breast cancer], UM UC3 [bladder cancer], PC 3 [prostate cancer], DU 145 [ prostate cancer], Panc-1 [pancreatic cancer], Mia Pa Ca 2 [pancreatic cancer], BXPC 3 [pancreatic cancer], AsPC1 [pancreatic cancer], Capan-2 [pancreatic cancer]. […] The DU-145 results were substantially a basis for selecting compounds and neoplasms for screening. The next neoplasms most sensitive to the cytotoxic activity of bis-acridines was the CRC HCT-116, as well as breast cancer MBA-MB-231. […] The cytotoxic activity of the remaining bis-acridines is significant or high (EC50 in the range from 1 to 0.04 μM). […] Panc-1, MiaPaCa-2 and Capan-2 are more sensitive, whereas for AsPC-1 and BxPC-3 this activity is at least an order of magnitude smaller.

AsPC-1 = assay: Cytotoxic activity in vitro, SRB; assay type: cell-based, human
Experimental: as §1

PANC-1 = assay: Cytotoxic activity in vitro, SRB; assay type: cell-based, human
Experimental: as §1

DU-145 = assay: Cytotoxic activity in vitro, SRB; assay type: cell-based, human
Experimental: as §1

MiaPaCa-2 = assay: Cytotoxic activity in vitro, SRB; assay type: cell-based, human
Experimental: as §1

HCT-116 = assay: Cytotoxic activity in vitro, SRB; assay type: cell-based, human
Experimental: as §1

PANC 1 = assay: Anti-neoplasmic activity against xenograft in hairless mice; assay type: in vivo
Experimental: (§2) For this, we selected 26 bis-acridines, mainly on the basis of the cytotoxic activity. We performed 34 series of experiments evaluating the anti-neoplasmic activity on xenografts in hairless mice against eleven neoplasms of human origin from the determination of the cytotoxic activity of bis-acridines (table 4). The tumours were injected subcutaneously to hairless mice of 5-weeks, female Crl:Nu-Foxnlnu, at a rate of 5×10^6 cells per mouse. After attaining a tumour of about 100 mm^3 or 200 mm^3 in depending on the neoplasm and its take this was 8 or even 30 days, and began therapy. On the day therapy was initiated, we randomised the animals and divided them into groups. Test groups were from 6 to 8 animals, and controls had from 8 to 14 animals. Each compound was tested at three differentiated doses.
(§3) The preparations were administered intravenously (i.v.) twice weekly for 4 weeks (thrice weekly for rapidly growing neoplasms). In several series, we used intraperitoneally (i.p.) administration in the same scheme. […] The therapeutic efficacy of the tested formulations was evaluated by measuring tumour size (length and width measurements of the tumour on the basis of the calculated tumour volume). Tumours were measured twice weekly for a period of about 30 days for fast-growing neoplasms, as well as about 60 days for the slow-growing neoplasms. The tumour volume in the treated groups compared with the control group. On this basis, inhibition of tumour growth was calculated using the following formula: Tumour growth inhibition TGI [%]=100−(ΔVT/ΔVC×100) Where ΔVT—is mean the tumour volume in animals in the group treated at the given day of treatment, minus the mean tumour volume in animals at the date of commencement of therapy. ΔVC is mean tumour volume in animals in the control group on a given day of treatment minus the average tumour volume of animals on the date of commencement of therapy. The results of the tests of anti-neoplasmic activity conducted in xenografts of human-origin neoplasms in mice are shown in Table 5.
(§4) The result above was accepted only in the case that the dose administered in all animals or more than half of the animals that survived to the end of the experiment. In addition, the evaluation was the day that the administration of the preparation was already completed: for the fast-growing neoplasms (eg. HCT116) this was in the days from 15 to 26, while for slow-growing neoplasms (eg. Panc 1) on a day from 34 to 60. […] In addition, the maximum inhibition of neoplasms could be identified in the day, in which there were no factors that could change the value TGI value.
(§5) Such factors may include: a significant decrease in body weight, the appearance of observable toxaemia, excessive rate of tumour growth: tumours in excess of 2000 mm^3 and all animals alive on that day.

MDA-MB-231 = assay: Cytotoxic activity in vitro, SRB; assay type: cell-based, human
Experimental: as §1

HT-29 = assay: Cytotoxic activity in vitro, SRB; assay type: cell-based, human
Experimental: as §1

DU 145 = assay: Anti-neoplasmic activity against xenograft in hairless mice; assay type: in vivo; conditions: series 1, i.p., single 8 mg/kg, total 40 mg/kg, day 35, *at least half of animals did not survive
Experimental: as §2, §3, §4, §5

UM-UC-3 = assay: Cytotoxic activity in vitro, SRB; assay type: cell-based, human
Experimental: as §1

H-460 = assay: Cytotoxic activity in vitro, SRB; assay type: cell-based, human
Experimental: as §1

H 460 = assay: Anti-neoplasmic activity against xenograft in hairless mice; assay type: in vivo
Experimental: as §2, §3, §4, §5

PC-3 = assay: Cytotoxic activity in vitro, SRB; assay type: cell-based, human
Experimental: as §1

MCF-7 = assay: Cytotoxic activity in vitro, SRB; assay type: cell-based, human
Experimental: as §1

BXPC 3 = assay: Anti-neoplasmic activity against xenograft in hairless mice; assay type: in vivo; conditions: series 25, i.v., single 20 mg/kg, total 160 mg/kg, day 29
Experimental: as §2, §3, §4, §5

Row | Compound | EC50 (PANC-1) [nM] | EC50 (DU-145) [nM] | EC50 (MiaPaCa-2) [nM] | EC50 (HCT-116) [nM] | EC50 (HT-29) [nM] | EC50 (UM-UC-3) [nM] | EC50 (H-460) [nM] | EC50 (MCF-7) [nM] | other results
1 | 1-[3-(8-hydroxy-methylimidazo[4,5,1-de]-acridin-6-on-5-yl)aminopropyl]-4-[3′-(1′-nitroacridin-1-yl)-aminopropyl]piperazine [C-2051] | 39 | 24 | 18 | 27 |  |  |  |  | EC50 (BxPC-3): 152 nM; EC50 (AsPC-1): 151 nM; TGI [%] [100 − (ΔVT/ΔVC × 100] (PANC 1; series 27, i.v., single 2 mg/kg, total 16 mg/kg, day 40, *at least half of animals did not survive): 68* %
2 | Cc1ccc(NCCNCCNc2c3ccccc3nc3cccc([N+](=O)[O-])c23)c2c(=O)c3ccccc3[nH]c12 [C-1965, 9-{N-[(4-methyl-9(10H)-acridono-1-yl)aminoethyl]ethylamino}-1′-nitroacridine] | 212 | 243 |  |  | 138 |  |  |  | EC50 (MDA-MB-231): 137 nM; TGI [%] [100 − (ΔVT/ΔVC × 100] (DU 145): 61* %
3 | Cc1ccc([N+](=O)[O-])c2c(NCCCNCCCNc3ccc(C)c4[nH]c5ccccc5c(=O)c34)c3ccccc3nc12 [C-2022, 9-{N-[(4-methyl-9(10H)-acridono-1-yl)aminopropyl]propylamino}-4′-methyl-1′-nitroacridine] | 162 | 129 |  | 85 | 1300 | 105 | 67 |  | TGI [%] [100 − (ΔVT/ΔVC × 100] (H 460; series 5, i.p., single 10 mg/kg, total 60 mg/kg, day 14): 25%
4 | Cc1ccc([N+](=O)[O-])c2c(NCCNCCNCCNc3ccc(C)c4[nH]c5ccccc5c(=O)c34)c3ccccc3nc12 [C-2024, 9-[N-(4-methyl-9(10H)acridono-1-yl)-aminoethylaminoethylamino-ethylamino]-4′-methyl-1′-nitroacridine] |  | 417 |  | 1270 | 1180 |  | 370 |  | 
5 | CN(CCCNc1c2ccccc2nc2cccc([N+](=O)[O-])c12)CCCNc1ccc([N+](=O)[O-])c2[nH]c3ccccc3c(=O)c12 [C-2026, 9-{N-[(4-nitro-9(10H)acridono-1-yl)aminopropyl]-N-methylaminopropylamino}-1′-nitroacridine] | 28 | 24 | 103 | 260 | 67 | 29 | 10 | 695 | EC50 (MDA-MB-231): 28 nM; EC50 (PC-3): 51 nM; EC50 (AsPC-1): 66 nM; TGI [%] [100 − (ΔVT/ΔVC × 100] (H 460; series 16, i.v., single 1 mg/kg, total 5 mg/kg, day 15): 14%; TGI [%] [100 − (ΔVT/ΔVC × 100] (H 460; series 16, i.v., single 4 mg/kg, total 16 mg/kg, day 14, *at least half of animals did not survive): 35* %
6 | Cc1ccc([N+](=O)[O-])c2c(NCCCN3CCN(CCCNc4ccc([N+](=O)[O-])c5[nH]c6ccccc6c(=O)c45)CC3)c3ccccc3nc12 [C-2030, 1-[3-(4-nitro-9(10H)-acridono-1-yl)aminopropyl]-4-[3′-(4′-methyl-1′-nitroacridin-1-yl)-aminopropyl]piperazine] | 130 | 41 | 108 | 83 |  | 63 | 40 |  | EC50 (PC-3): 362 nM; TGI [%] [100 − (ΔVT/ΔVC × 100] (H 460; series 6, i.v., single 10 mg/kg, total 60 mg/kg, day 17, *at least half of animals did not survive): 24* %
7 | Cc1ccc([N+](=O)[O-])c2c(NCCNCCNCCNc3ccc([N+](=O)[O-])c4[nH]c5ccccc5c(=O)c34)c3ccccc3nc12 [C-2032, 9-[N-(4-nitro-9(10H)acridono-1-yl)-aminoethylaminoethylamino-ethylamino]-4′-methyl-1′-nitroacridine] | 1310 | 1690 |  | 850 |  | 730 |  |  | 
8 | Cc1ccc(NCCCNCCCNc2c3ccccc3nc3cccc([N+](=O)[O-])c23)c2c(=O)c3ccccc3[nH]c12 [C-2038, 9-{N-[(4-methyl-9(10H)-acridono-1-yl)aminopropyl]propylamino}-1′-nitroacridine] | 377 | 184 | 280 |  |  |  |  | 228 | 
9 | O=c1c2cc(O)ccc2n2nnc3ccc(NCCCN4CCN(CCCNc5c6ccccc6nc6cccc([N+](=O)[O-])c56)CC4)c1c32 [C-2047, 1-[3-(8-hydroxy-6H-[1,2,3]triazolo[4,5,1-de]-acridin-6-on-5-yl)aminopropyl]-4-[3′-(1′-nitroacridin-1-yl)-aminopropyl]piperazine] |  | 17 |  | 17 | 29 |  | 36 |  | 
10 | O=c1c2ccccc2n2nnc3ccc(NCCCN4CCN(CCCNc5c6ccccc6nc6cccc([N+](=O)[O-])c56)CC4)c1c32 [C-2048, 1-[3-(6H-[1,2,3]triazolo[4,5,1-de]-acridin-6-on-5-yl)aminopropyl]-4-[3′-(1′-nitroacridin-1-yl)-aminopropyl]piperazine] |  | 22 |  | 41 | 152 | 120 |  | 103 | EC50 (MDA-MB-231): 33 nM; TGI [%] [100 − (ΔVT/ΔVC × 100] (PANC 1; series 30, i.v., single 4 mg/kg, total 24 mg/kg, day 52): 86%
11 | Cc1ccc([N+](=O)[O-])c2c(NCCCN3CCN(CCCNc4ccc5ncn6c7ccccc7c(=O)c4c56)CC3)c3ccccc3nc12 [C-2050, 1-[3-(imidazo[4,5,1-de]-acridin-6-on-5-yl)aminopropyl]-4-[3′-(4′-methyl-1′-nitroacridin-1-yl)-aminopropyl]piperazine] | 65 | 62 | 58 | 45 |  |  |  |  | EC50 (BxPC-3): 351 nM; EC50 (AsPC-1): 240 nM; TGI [%] [100 − (ΔVT/ΔVC × 100] (PANC 1; series 24, i.v., single 20 mg/kg, total 160 mg/kg, day 50): 64%; TGI [%] [100 − (ΔVT/ΔVC × 100] (PANC 1; series 26, i.v., single 30 mg/kg, total 160 mg/kg, day 40): 64%; TGI [%] [100 − (ΔVT/ΔVC × 100] (BXPC 3): 40%
12 | CN(CCCNc1c2ccccc2nc2cccc([N+](=O)[O-])c12)CCCNc1ccc2nnn3c4ccc(O)cc4c(=O)c1c23 [C-2052, 9-{N-[(8-hydroxy-6H-[1,2,3]triazolo[4,5,1-de]-acridin-6-on-5-yl)aminopropyl]-N-methylaminopropylamino}-1′-nitroacridine] |  | 28 |  |  |  | 155 | 74 | 220 | activity against Panc-1 pancreatic cancer (PANC 1; in words, scale of b125: TGI≥80% as high activity): high level of activity; TGI [%] [100 − (ΔVT/ΔVC × 100] (PANC 1; series 30, i.v., single 1 mg/kg, total 8 mg/kg, day 52): 39%
